This note sets out measurements from patent publication US9139581B2 (PORTOLA PHARMACEUTICALS, INC., priority 2008, dated 2015).

One assay concerns the target T1, full length active recombinant SYK enzyme (Homo sapiens, UniProt P43405).
T1 construct: full length active recombinant SYK enzyme (Millipore, Calif.); purchased Millipore
Nature of the assay: Inhibition of Syk tyrosine phosphorylation activity (LANCE TR-FRET). Type of assay: biochemical. The conditions noted are these: Table 3; 1 nM SYK, 100 μM ATP; read-out: Syk IC50 code. An outline of the steps:
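The reaction is quenched with buffer holding Eu-anti-phosphotyrosine and streptavidin-APC, and detection runs 1 hr at room temperature. TR-FRET is read and IC50s come from non-linear regression.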
One may read the IC50 as the midpoint of a concentration-inhibition curve. Consider `CC(=O)N1CCN(c2ccc(Nc3nc(NC4CCC(N)CC4)c4cc[nH]c4n3)cc2)CC1` (stereo not shown) [Example 66, 1-(4-(4-(4-(4-aminocyclohexylamino)-7H-pyrrolo[2,3-d]pyrimidin-2-ylamino)phenyl)piperazin-1-yl)ethanone], for which the IC50 was 10 to 100 nM.

On to `NCCOCCNc1nc(Nc2ccc3cn[nH]c3c2)nc2[nH]ccc12` [Example 92, N^4-(2-2-(aminoethoxy)ethyl)-N^2-(1H-indazol-6-ylamino)-7H-pyrrolo[2,3-d]pyrimidine-2,4-diamine], for which the IC50 is 10 to 100 nM. Consider `NCCOCCNc1nc(Nc2ccc(N3CCC[C@H]3C(N)=O)cc2)nc2[nH]ccc12` [Example 94, (S)-1-(4-(4-(2-(2-aminoethoxy)ethylamino)-7H-pyrrolo[2,3-d]pyrimidin-2-ylamino)phenyl)pyrrolidine-2-carboxamide], for which the IC50 lay in the range of 100 to 1000 nM. Same read-out and setting: next, `COC(=O)C(N)C1CCN(c2nc(Nc3ccc4c(c3)CCC(=O)N4)ncc2F)CC1` (stereo not shown) [Example 135, Methyl 2-amino-2-(1-(5-fluoro-2-(2-oxo-1,2,3,4-tetrahydroquinolin-6-ylamino)pyrimidin-4-yl)piperidin-4-yl)acetate]: over 1000 nM; `CN1C(=O)CCc2cc(Nc3nc(NCc4ccccc4)c4c(C#N)c[nH]c4n3)ccc21` [Example 115, 4-(Benzylamino)-2-(1-methyl-2-oxo-1,2,3,4-tetrahydroquinolin-6-ylamino)-7H-pyrrolo[2,3-d]pyrimidine-5-carbonitrile]: 100 to 1000 nM. Same read-out and setting: the same measure for `NC(=O)c1cccc(Nc2nc(Nc3ccc(N4CCNCC4)cc3)nc3[nH]ccc23)c1` [Example 95B, 3-(2-(4-(piperazin-1-yl)phenylamino)-7H-pyrrolo[2,3-d]pyrimidin-4-ylamino)benzamide]: 100 to 1000 nM; for `NCC1CCN(c2nc(Nc3ccc4c(c3)CCC(=O)N4)ncc2-c2ccncc2)CC1` [Example 138, 6-(4-(4-(aminomethyl)piperidin-1-yl)-5-(pyridin-4-yl)pyrimidin-2-ylamino)-3,4-dihydroquinolin-2(1H)-one]: over 1000 nM; for `CC(=O)N1CCN(c2ccc(Nc3nc(N4CCCC(C(N)=O)C4)c4nc[nH]c4n3)cc2)CC1` (stereo not shown) [Example 118, 1-(2-(4-(4-acetylpiperazin-1-yl)phenylamino)-9H-purin-6-yl)piperidine-3-carboxamide]: 100 to 1000 nM. Still for that read-out and setting: next, `CNc1nc(Nc2ccc(N(C)C(=O)C3CC3)cc2)nc2[nH]ccc12` [Example 82, N-(4-(4-(methylamino)-7H-pyrrolo[2,3-d]pyrimidin-2-ylamino)phenyl)-N-methylcyclopropanecarboxamide]: 100 to 1000 nM; `N#Cc1c[nH]c2nc(Nc3ccc(S(N)(=O)=O)cc3)nc(NC3CC3)c12` [Example 106, 4-(5-cyano-4-(cyclopropylamino)-7H-pyrrolo[2,3-d]pyrimidin-2-ylamino)benzenesulfonamide]: 1 to 10 nM. Take `O=S1(=O)CCC(Nc2nc(Nc3ccc(N4CCNCC4)cc3)nc3[nH]ccc23)C1` (stereo not shown) [Example 100B, N2-(4-(piperazin-1-yl)phenyl)-N4-(1,1-dioxy-tetrahydrothiophen-3-yl)-7H-pyrrolo[2,3-d]pyrimidine-2,4-diamine]: the IC50 was over 1000 nM. As to `CN(C)CC1CCN(c2nc(Nc3ccc(C(N)=O)cc3)ncc2F)CC1` [Example 133, 4-(4-(4-((dimethylamino)methyl)piperidin-1-yl)-5-fluoropyrimidin-2-ylamino)benzamide], the IC50 was over 1000 nM. `COCCNc1nc(Nc2ccc(N3CCN(C(C)=O)CC3)cc2)nc2[nH]ccc12` [Example 90, 1-(4-(4-(4-(2-methoxyethylamino)-7H-pyrrolo[2,3-d]pyrimidin-2-ylamino)phenyl)piperazin-1-yl)ethanone]: the IC50 fell in the range of 100 to 1000 nM.

Regarding `N#Cc1c[nH]c2nc(Nc3ccc(C(N)=O)cc3)nc(NC3CC3)c12` [Example 104, 4-(5-cyano-4-(cyclopropylamino)-7H-pyrrolo[2,3-d]pyrimidin-2-ylamino)benzamide], the IC50 lay in the range of 10 to 100 nM.

For `C[C@H](CO)Nc1nc(Nc2ccc(N3CCNCC3)cc2)nc2[nH]ccc12` [Example 98B, (R)-2-(2-(4-(piperazin-1-yl)phenylamino)-7H-pyrrolo[2,3-d]pyrimidin-4-ylamino)propan-1-ol], the IC50 fell in the range of 100 to 1000 nM. Take `CN(C(=O)CO)c1ccc(Nc2nc(NC3CC3)c3cc[nH]c3n2)cc1` [Example 75, N-(4-(4-(cyclopropylamino)-7H-pyrrolo[2,3-d]pyrimidin-2-ylamino)phenyl)-2-hydroxy-N-methylacetamide]: the IC50 was in the range of 10 to 100 nM.

On to `CC(=O)N(C)c1ccc(Nc2nc(NCCCCN)c3cc[nH]c3n2)cc1` [Example 62, N-(4-(4-(4-aminobutylamino)-7H-pyrrolo[2,3-d]pyrimidin-2-ylamino)phenyl)-N-methylacetamide], for which the IC50 fell in the range of 10 to 100 nM.

Consider `CS(=O)(=O)Cc1ccc(Nc2nc(NC3CCC3)c3cc[nH]c3n2)cc1` [Example 76], for which the IC50 fell in the range of 100 to 1000 nM.

For the molecule `CC(=O)N1CCN(c2ccc(Nc3nc(Nc4cccc(S(N)(=O)=O)c4)c4cc[nH]c4n3)cc2)CC1` [Example 96A, 3-(2-(4-(4-acetylpiperazin-1-yl)phenylamino)-7H-pyrrolo[2,3-d]pyrimidin-4-ylamino)benzenesulfonamide], the IC50 fell in the range of 100 to 1000 nM. With `OCCNc1nc(Nc2ccc3cn[nH]c3c2)nc2[nH]ccc12` [Example 91, N^2-(1H-indazol-6-ylamino)-N^4-(2-hydroxyethyl)-7H-pyrrolo[2,3-d]pyrimidine-2,4-diamine], the IC50 lay in the range of 10 to 100 nM. As to `CN(C)CCNC(=O)CN1C(=O)CCc2cc(Nc3nc(NC4CCC4)c4cc[nH]c4n3)ccc21` [Example 71, 2-(6-(4-(cyclobutyamino)-7H-pyrrolo[2,3-d]pyrimidine-2-ylamino)-2-oxo-3,4-dihydroquinolin-1(2H)-yl)-N-(2-(dimethylamino)ethyl)acetamide], the IC50 lay in the range of 100 to 1000 nM. As for `c1cc2c(NC3CCNCC3)nc(Nc3ccc4cn[nH]c4c3)nc2[nH]1` [Example 58, N2-(1H-indazol-6-yl)-N4-(piperidin-4-yl)-7H-pyrrolo[2,3-d]pyrimidine-2,4-diamine], the IC50 is 100 to 1000 nM. The same measure, in the same setting: next, `CC(=O)N1CCN(c2ccc(Nc3ncc(F)c(N4CCC(N)CC4)n3)cc2)CC1` [Example 128, 1-(4-(4-(4-(4-aminopiperidin-1-yl)-5-fluoropyrimidin-2-ylamino)phenyl)piperazin-1-yl)ethanone]: over 1000 nM; `C[C@@H](CO)Nc1nc(Nc2ccc(N3CCNCC3)cc2)nc2[nH]ccc12` [Example 99B, (S)-2-(2-(4-(piperazin-1-yl)phenylamino)-7H-pyrrolo[2,3-d]pyrimidin-4-ylamino)propan-1-ol]: 100 to 1000 nM; `CNC(=O)COc1cccc(Nc2nc(Nc3ccc4cn[nH]c4c3)nc3[nH]ccc23)c1` [Example 78]: 10 to 100 nM.

Take `CC(=O)N1CCN(c2ccc(Nc3ncc(C(N)=O)c(N4CCC(CNC(N)=O)CC4)n3)cc2)CC1` [Example 130, 2-(4-(4-acetylpiperazin-1-yl)phenylamino)-4-(4-(ureidomethyl)piperidin-1-yl)pyrimidine-5-carboxamide]: the IC50 was over 1000 nM. With `CC(=O)N(C)c1ccc(Nc2nc(NCCCCCN)c3cc[nH]c3n2)cc1` [Example 65, N-(4-(4-(5-aminopentylamino)-7H-pyrrolo[2,3-d-]pyrimidin-2-ylamino)phenyl)-N-methylacetamide], the IC50 was 100 to 1000 nM. Still for that read-out and setting: next, `CC(=O)N1CCN(c2ccc(Nc3nc(Nc4cccc(C(N)=O)c4)c4cc[nH]c4n3)cc2)CC1` [Example 95A, 3-(2-(4-(4-acetylpiperazin-1-yl)phenylamino)-7H-pyrrolo[2,3-d]pyrimidin-4-ylamino)benzamide]: 100 to 1000 nM; `COC(=O)N(C)c1ccc(Nc2nc(NC3CC3)c3cc[nH]c3n2)cc1` [Example 73]: 100 to 1000 nM; `CC(=O)N(C)c1ccc(Nc2nc(NC3CC3)c3c(-c4ccncc4)c[nH]c3n2)cc1` [Example 47, N-(4-(4-(cyclopropylamino)-5-(pyridin-4-yl)-7H-pyrrolo[2,3-d]pyrimidin-2-ylamino)phenyl)-N-methylacetamide]: 10 to 100 nM.

For the molecule `CC(=O)N1CCN(c2ccc(Nc3ncc(F)c(N4CCC(CC(N)=O)CC4)n3)cc2)CC1` [Example 126, 2-(1-(2-(4-(4-acetylpiperazin-1-yl)phenylamino)-5-fluoropyrimidin-4-yl)piperidin-4-yl)acetamide], the IC50 lay in the range of 100 to 1000 nM.

Still in this assay, the particulars now being: Table 4; 1 nM SYK, 100 μM ATP; read-out: syk IC50.
Take `CC(=O)N1CCN(c2ccc(Nc3ncc(F)c(N4CCCC(C(N)=O)C4)n3)cc2)CC1` (stereo not shown) [Example 27, 1-(2-(4-(4-acetylpiperazin-1-yl)phenylamino)-5-fluoropyrimidin-4-yl)piperidine-3-carboxamide]: the IC50 was over 1000 nM. Still for that read-out and setting: the same measure for `CC(=O)N1CCN(c2ccc(Nc3ncc(F)c(N4CCCCC4CN)n3)cc2)CC1` (stereo not shown) [Example 34, 1-(4-(4-(4-(2-(aminomethyl)piperidin-1-yl)-5-fluoropyrimidin-2-ylamino)phenyl)piperazin-1-yl)ethanone]: over 1000 nM; for `NC(=O)C1CCCN(c2nc(Nc3ccc4cn[nH]c4c3)ncc2F)C1` (stereo not shown) [Example 26, 1-(2-(1H-indazol-6-ylamino)-5-fluoropyrimidin-4-yl)piperidine-3-carboxamide]: 100 to 1000 nM. With `CC(=O)N1CCN(c2ccc(Nc3ncc(C(N)=O)c(N4CCCCC4CCO)n3)cc2)CC1` (stereo not shown) [2-(4-(4-acetylpiperazin-1-yl)phenylamino)-4-(2-(2-hydroxyethyl)piperidin-1-yl)pyrimidine-5-carboxamide], the IC50 was over 1000 nM. For `NCC1CCN(c2nc(Nc3ccc(S(N)(=O)=O)cc3)ncc2F)CC1` [Example 32, 4-(4-(4-(aminomethyl)piperidin-1-yl)-5-fluoropyrimidin-2-ylamino)benzenesulfonamide], the IC50 is 10 to 100 nM. Still for that read-out and setting: the same measure for `c1cc2c(N3CCCCC3)nc(Nc3ccc(N4CCNCC4)cc3)nc2[nH]1` [Example 19, N-(4-(piperazin-1-yl)phenyl)-4-(piperidin-1-yl)-7H-pyrrolo[2,3-d]pyrimidin-2-amine]: over 1000 nM.
